Laboratory results published in US20040204390A1, “Pharmaceutical combination comprising an anti-androgen and an oestrogen receptor beta agonist” (priority 2001, published 2004).

Tests used:
[1] = biological target: estrogen receptor; test: Scatchard analysis of ligand binding affinity on receptor-programmed reticulocyte lysate; settings: Scatchard analysis at receptor dilutions giving signal:noise ~10
Experimental: The volume of receptor-programmed reticulocyte lysate to be added to the binding assay can be determined independently from two measurements made on each batch of receptor prepared. First, Kis are determined for standard compounds using a series of dilutions of the receptor preparation. Scatchard analysis of ligand binding affinity is performed at the receptor dilutions that produced reported Kis for these compounds and an acceptable signal:noise ratio (˜10).

[2] = humans, single agent therapy, circulating in the blood; Blackledge et al, Urology 1996; cited from earlier work

Row | Structure (SMILES) | Kd [1] [nM] | basal level of total testosterone [2]
1 | CC12CCC3c4ccc(O)cc4CCC3C1CC([125I])C2O (stereo not drawn) [[^125I]-estradiol, [^125I]-16α-iodo-3,17β-estradiol] | 0.1 to 1 | –
2 | CC(O)(CS(=O)(=O)c1ccc(F)cc1)C(=O)Nc1ccc(C#N)c(C(F)(F)F)c1 (stereo not drawn) [bicalutamide, 4′-cyano-α′,α′,α′-trifluoro-3-(4-fluorophenylsulphonyl)-2-hydroxy-2-methylpropiono-m-toluidide] | – | approximate doubling
